{"source": "patent US20100248226A1", "about": "“METHODS FOR MEASURING CELL RESPONSE TO DNA DAMAGING AGENTS USING PROMYELOCYTIC LEUKEMIA PROTEIN NUCLEAR BODIES” (priority 2006, published 2010)", "key": {"[1]": {"test_system": "PML NBs in normal human diploid fibroblast (NHDF) cell line GM05757", "assay_type": "cell-based", "text": "(§1) Cell Culture and drug treatments. Cell lines used in this study: NDHFs (GM05757, Coriell Cell Repository); human AT fibroblasts (a.k.a. AT5B1, GM05823; Coriell); human NBS-T fibroblasts (gift of J. Lukas, Danish Cancer Society, Copenhagen, Denmark); human ATLD fibroblasts (gift of Y. Shiloh, Tel Aviv University, Tel Aviv, Israel) Saos-2 (American Tissue Culture Type Collection (ATCC), HCT116 and p53 null HCT116 isogenic cells (gift of Dr. B. Vogelstein, Department of Oncology, John Hopkins University, Baltimore, Md.); ATR-DN and ATR-WT cells (gift of Dr. Paul Nghiem, University of Washington Medical School, Seattle, Wash.); Seckel syndrome cells (GM18366, Coriell); Chk2−/−MEFs and isogenic WT MEFs (gift of Dr. T. Mak, University of Toronto, Toronto); and isogenic and U2OS cells stably expressing GFP-PML IV (gift of J. Taylor, U. Wisconsin, Milwaukee, Wis.). NBST-pBabe and NBST-pBabe-NBS1 cells lines were generated by retroviral transduction of NBS-T fibroblasts using either pBabe-Puro alone or encoding full length human NBS1 (gift of J. Lukas), respectively. […] Alternately, asynchronous cell cultures were exposed to whole-cell ionizing radiation (IR)(dose range, 0-20 Gy) using a ^137Cs irradiator (MDS Nordion, Ottawa, Canada) at 1 Gy/min (on ice, aerobic conditions). […]\n(§2) IF detection of proteins, live-cell imaging and fluorescence recovery after photobleaching (FRAP). […]"}, "PML protein in NHDFs": {"test_system": "PML protein in NHDFs", "assay_type": "cell-based, human", "conditions": "CHX 30 min prior and maintained", "text": "Cell Culture and drug treatments. Cell lines used in this study: NDHFs (GM05757, Coriell Cell Repository); human AT fibroblasts (a.k.a. AT5B1, GM05823; Coriell); human NBS-T fibroblasts (gift of J. Lukas, Danish Cancer Society, Copenhagen, Denmark); human ATLD fibroblasts (gift of Y. Shiloh, Tel Aviv University, Tel Aviv, Israel) Saos-2 (American Tissue Culture Type Collection (ATCC), HCT116 and p53 null HCT116 isogenic cells (gift of Dr. B. Vogelstein, Department of Oncology, John Hopkins University, Baltimore, Md.); ATR-DN and ATR-WT cells (gift of Dr. Paul Nghiem, University of Washington Medical School, Seattle, Wash.); Seckel syndrome cells (GM18366, Coriell); Chk2−/−MEFs and isogenic WT MEFs (gift of Dr. T. Mak, University of Toronto, Toronto); and isogenic and U2OS cells stably expressing GFP-PML IV (gift of J. Taylor, U. Wisconsin, Milwaukee, Wis.). NBST-pBabe and NBST-pBabe-NBS1 cells lines were generated by retroviral transduction of NBS-T fibroblasts using either pBabe-Puro alone or encoding full length human NBS1 (gift of J. Lukas), respectively. […] Alternately, asynchronous cell cultures were exposed to whole-cell ionizing radiation (IR)(dose range, 0-20 Gy) using a ^137Cs irradiator (MDS Nordion, Ottawa, Canada) at 1 Gy/min (on ice, aerobic conditions). […] Cells were then maintained in growth medium containing kinase inhibitors for the indicated time."}, "NHDFs": {"test_system": "NHDFs", "experiment": "BrdU incorporation (DNA synthesis) after VP16, NHDF", "assay_type": "cell-based, human", "conditions": "NHDFs treated with CHX, 18 h post-VP16 treatment", "method": "Cells were prepared for immunolabelling as described (Eskiw et al., 2003). To label with BrdU, cells were pulsed with 20 μM BrdU for 30 minutes, fixed in methanol for 30 minutes at −20° C. The methanol was removed and 4N HCl was added to the cells for 2 minutes at room temperature (RT). Cells were washed 3× with PBS at RT. Primary antibodies used were: mouse anti-PML, clone 5E10 (1:10)(a gift from R. van Driel, University of Amsterdam, The Netherlands), rabbit anti-PML (1:1000)(Chemicon, AB1370); rabbit anti-Sp100 (1:500)(Chemicon, Ab1380); mouse anti-RPA (1:200)(Calbiochem, RPA34-20); mouse anti-phospho-Histone H3 (ser10) (1:500)(Upstate, MC463); rabbit anti-Cyclin A (1:200)(Santa Cruz, sc-751); mouse anti-SUMO1 (1:20)(Zymed, GMP-1); mouse anti-y-H2AX (1:500)(Upstate, JBW301); mouse anti-BrdU (1:10)(BD Biosciences, clone B44). Secondary antibodies used were donkey anti-mouse or rabbit Cy3 and Cy5 (Jackson Laboratories). […] For fluorescence microscopy, coverslips were mounted on glass slides using 90% glycerol/PBS containing 1 mg/ml paraphenlenediamine and 1 μg/ml 4′,6-Diamidino-2-phenylindole (DAPI). Images were collected on a Leica Microsystems DMRA2 upright microscope equipped with a Hamamatsu ORCA-ER camera using the 63×1.32 NA oil-immersion objective. […] OpenLab 3.5.1 (Improvision) software was used to collect images, and the images were processed with Photoshop 7.0 (Adobe). […]"}, "NHDFs (GM05757)": {"test_system": "NHDFs (GM05757)", "experiment": "FACS cell cycle analysis", "assay_type": "cell-based, human", "conditions": "NHDFs by 18 h after VP16 treatment", "procedure": "Cells were harvested and pelleted. The pellet was resuspended in 50 μl HBSS with 2% FBS. Cells were fixed with 1 ml ice-cold 80% ethanol for 30 minutes on ice. Cells were pelleted and resuspended in HBSS containing 0.1 mg/ml propidium iodide (Sigma) and 0.6% NP-40 to final concentration of 2×10^6 cells/ml. An equal volume of 2 mg/ml RNase in HBSS was added and incubated at room temperature in the dark for 30 minutes. This solution was then filtered through a 40 μm nylon mesh (BD Biosciences) and keep on ice until analysis. Cells were analyzed on a FACscan flowcytometer (BD Biosciences). Data analysis was performed using FlowJo 6.0 (Tree Star)."}, "[2]": {"test_system": "PML NBs in NHDFs (GM05757)", "experiment": "Correlative LM/ESI ultrastructure of PML NBs", "assay_type": "cell-based, human", "conditions": "20 μM VP16 for 30 min, NHDF", "procedure": "Correlative Microscopy and Electron Spectroscopic Imaging—Samples were prepared and sectioned for correlative microscopy and electron spectroscopic imaging (ESI) as previously described (Eskiw et al., 2003; Dellaire et al., 2004). Nitrogen and phosphorus maps were collected using an FEI Technai 20 transmission electron microscope fitted with an electron imaging spectrometer (Gatan). Immuno-gold labeling was accomplished using a secondary antibody conjugated to Ultra-small nanogold (donkey anti-rabbit, EMS, Cat. 25100)."}, "[3]": {"test_system": "PML NBs in NHDF cell line GM05757", "experiment": "Kinase inhibitor effect on the PML NB number increase in response to DSBs", "assay_type": "cell-based, human", "text": "as §1, §2"}}, "note": "Read-outs that look alike come from different tables or passages of the source.", "data": [{"compound": "C[C@@H]1C[C@@H]([C@H](O)CC2CC(=O)NC(=O)C2)C(=O)[C@@H](C)C1", "note": "[CHX, cycloheximide]", "values": [{"measurement": "PML NB number initially, compared to untreated cells", "setting": "[1]; CHX-treated NHDFs, VP16 treatment", "result": "higher number of PML NBs initially"}, {"measurement": "effect on DNA damage-dependent increase in PML protein levels", "setting": "PML protein in NHDFs; 4 h after VP16", "result": "little effect"}, {"measurement": "effect on DNA damage-dependent increase in PML protein levels", "setting": "PML protein in NHDFs; 12 h after VP16", "result": "inhibited"}, {"measurement": "BrdU incorporation", "setting": "NHDFs", "result": "no BrdU incorporation"}]}, {"compound": "COc1cccc2c1C(=O)c1c(O)c3c(c(O)c1C2=O)C[C@@](O)(C(=O)CO)C[C@@H]3O[C@H]1C[C@H](N)[C@H](O)[C@H](C)O1", "note": "[doxorubicin]", "values": [{"measurement": "time after treatment at which γ-H2AX signal and PML NB number peaked", "setting": "[1]; 20 μM VP16 or 1.5 μM doxorubicin for 30 min, NHDF GM05757", "result": 3, "unit": "h"}]}, {"compound": "COc1cc([C@@H]2c3cc4c(cc3[C@@H](O[C@@H]3O[C@@H]5CO[C@@H](C)O[C@H]5[C@H](O)[C@H]3O)[C@H]3COC(=O)[C@H]23)OCO4)cc(OC)c1O", "note": "[VP16, etoposide]", "values": [{"measurement": "cell cycle distribution", "setting": "NHDFs (GM05757)", "result": "marked accumulation in G1 and G2 phase"}, {"measurement": "PML NB ultrastructure (symmetry, chromatin contacts)", "setting": "[2]", "result": "lose their radial symmetry and make fewer contacts with the surrounding chromatin fibres"}]}, {"compound": "NC(=O)c1ccc2nc(-c3ccc(Oc4ccc(Cl)cc4)cc3)[nH]c2c1", "note": "[Chk2 kinase inhibitor II]", "values": [{"measurement": "effect on PML NB number at 3 h following VP16 treatment", "setting": "[3]; 10 μM Chk2 inhibitor II or 20 μM wortmannin pre-treatment, versus VP16 without inhibitor", "result": "significantly reduce"}, {"measurement": "effect on the initial increase in PML NBs in response to VP16", "setting": "[3]; 10 μM inhibitor pre-treatment, 30 min time point", "result": "did not affect"}]}]}
